The values that follow come from patent US20190315814A1, “LANTIBIOTIC VARIANTS AND USES THEREOF” (priority 2016, published 2019).

The conditions of series [1]: simulated gi fluid.
Series [2] has as its system VRE Enterococcus faecalis. Particulars: VRE.
Series [3] deals with Clostridium scindens (ATCC 35704).
Series [4] concerns Lactobacillus acidophilus (CCUG 4356).
Series [5] deals with Peptostreptococcus anaerobius (ATCC 27337).
In series [6] the test system is Eggerthella lenta (ATCC 27337).
The mark [7] stands for this setting: FaSSIF + 1% pancreatin + 3 μg/ml trypsin + 3 μg/ml chymotrypsin half-life.

In brackets after ≈: the same amount, converted by molar mass. Where two headings read alike, the source gives them in different places.

`C=C1NC(=O)[C@H](Cc2c[nH]c3ccccc23)NC(=O)[C@H](NC(=O)[C@H](CCCCN)NC(=O)[C@H](C)N)CSC[C@@H](C(=O)N[C@H]2C(=O)N3CCC[C@H]3C(=O)NCC(=O)N[C@H](C(=O)N[C@@H](C)C(=O)N[C@@H](C)C(=O)NC(=CC)C(=O)NCC(=O)N[C@@H]3CSC[C@@H]4NC(=O)[C@H](Cc5ccc(O)cc5)NC(=O)[C@@H](CS/C=C\NC4=O)NC(=O)[C@H](CC(N)=O)NC(=O)[C@H](Cc4ccccc4)NC3=O)CS[C@H]2C)NC(=O)[C@H](CC(C)C)NC1=O` [F1A R13A]: the half-life (as a rule, the time needed for the level to fall by half in the phase considered) in series [1] (setting [7]) was 2.17 h. The compound also gave a half-life in series [1] (FaSSIF only half-life) greater than 12 h. Besides, in series [2], the “MIC VRE ATCC 51575” value amounted to 32 µg/mL (≈ 15.2 µM) and the “MIC VRE CCUG 47775” value came out at 32 µg/mL (≈ 15.2 µM). Besides, the “MIC VRE ATCC 700221” value against VRE Enterococcus faecium was 16 µg/mL (≈ 7.61 µM). Besides, the “MIC C. scindens” value in series [3] worked out at 16 µg/mL (≈ 7.61 µM). The “MIC L. acidophilus” value in series [4] was determined as 8 µg/mL (≈ 3.8 µM). In series [5], the “MIC P. anaerobius” value was 2 µg/mL (≈ 0.951 µM). For the same compound, the “MIC E. lenta” value in series [6] was 4 µg/mL (≈ 1.9 µM). In the series with Heliobacter pylori, the “MIC to H. Pylori without EDTA” value is greater than 64 µg/mL and the “MIC to H. Pylori with 0.05M EDTA” value came to 64 µg/mL.
Take `C=C1NC(=O)[C@H](Cc2c[nH]c3ccccc23)NC(=O)[C@H](NC(=O)[C@H](CCCCN)NC(=O)[C@H](C)N)CSC[C@@H](C(=O)N[C@H]2C(=O)N3CCC[C@H]3C(=O)NCC(=O)N[C@H](C(=O)N[C@@H](C)C(=O)NCC(=O)NC(=CC)C(=O)NCC(=O)N[C@@H]3CSC[C@@H]4NC(=O)[C@H](Cc5ccc(O)cc5)NC(=O)[C@@H](CS/C=C\NC4=O)NC(=O)[C@H](CC(N)=O)NC(=O)[C@H](Cc4ccccc4)NC3=O)CS[C@H]2C)NC(=O)[C@H](CC(C)C)NC1=O` [F1A R13G]: the half-life in series [1] (setting [7]) is 2.07 h. The compound also returned a half-life in series [1] (FaSSIF only half-life) of 4.98 h. In addition, in series [2], the “MIC VRE ATCC 51575” value is greater than 64 µg/mL and the “MIC VRE CCUG 47775” value was greater than 64 µg/mL. Besides, the “MIC VRE ATCC 700221” value in the series with VRE Enterococcus faecium is 32 µg/mL (≈ 15.3 µM). In series [3], the “MIC C. scindens” value turned out to be 32 µg/mL (≈ 15.3 µM). Moreover, in series [4], the “MIC L. acidophilus” value came out at 16 µg/mL (≈ 7.66 µM). In addition, the “MIC P. anaerobius” value in series [5] amounted to 4 µg/mL (≈ 1.91 µM). For the same compound, the “MIC E. lenta” value in series [6] amounted to 16 µg/mL (≈ 7.66 µM). Besides, in the series with Heliobacter pylori, the “MIC to H. Pylori without EDTA” value is greater than 64 µg/mL and the “MIC to H. Pylori with 0.05M EDTA” value is greater than 64 µg/mL.
For the compound `C=C1NC(=O)[C@H](Cc2c[nH]c3ccccc23)NC(=O)[C@H](NC(=O)[C@H](CCCCN)NC(=O)CN)CSC[C@@H](C(=O)N[C@H]2C(=O)N3CCC[C@H]3C(=O)NCC(=O)N[C@H](C(=O)N[C@@H](C)C(=O)N[C@@H](CC(N)=O)C(=O)NC(=CC)C(=O)NCC(=O)N[C@@H]3CSC[C@@H]4NC(=O)[C@H](Cc5ccc(O)cc5)NC(=O)[C@@H](CS/C=C\NC4=O)NC(=O)[C@H](CC(N)=O)NC(=O)[C@H](Cc4ccccc4)NC3=O)CS[C@H]2C)NC(=O)[C@H](CC(C)C)NC1=O` [F1G R13N], the half-life in series [1] (setting [7]) was 3.75 h. The compound also came in with a half-life in series [1] (FaSSIF only half-life) greater than 12 h. For the same compound, in series [2], the “MIC VRE ATCC 51575” value is greater than 64 µg/mL and the “MIC VRE CCUG 47775” value is greater than 64 µg/mL. Also, the “MIC VRE ATCC 700221” value against VRE Enterococcus faecium turned out to be 32 µg/mL (≈ 15 µM). For the same compound, the “MIC C. scindens” value in series [3] was 16 µg/mL (≈ 7.5 µM). For the same compound, in series [4], the “MIC L. acidophilus” value was 8 µg/mL (≈ 3.75 µM). Also, the “MIC P. anaerobius” value in series [5] was 4 µg/mL (≈ 1.88 µM). Moreover, the “MIC E. lenta” value in series [6] was 16 µg/mL (≈ 7.5 µM). In addition, in the series with Heliobacter pylori, the “MIC to H. Pylori without EDTA” value was greater than 64 µg/mL and the “MIC to H. Pylori with 0.05M EDTA” value was greater than 64 µg/mL.
As for `CN(C)[C@@H]1C(O)=C(C(N)=O)C(=O)[C@@]2(O)C(O)=C3C(=O)c4c(O)cccc4[C@@](C)(O)[C@H]3C[C@@H]12` [Tetracycline, reference compound], the “MIC to H. Pylori with 0.05M EDTA” value in the series with Heliobacter pylori came out at 0.25 µg/mL. In addition, the “MIC to H. Pylori without EDTA” value in the series with Heliobacter pylori (without EDTA) was 0.5 µg/mL (≈ 1.13 µM).
